Compound: O=P1(c2cc(O)ccc2O)Oc2ccccc2-c2ccccc21 (configuration not stated)
- solubility (mole fraction) (in 2-ethoxyethanol, 293.15 K): 0.000896
- solubility (mole fraction) (in 2-ethoxyethanol, 298.15 K): 0.0012
- solubility (mole fraction) (in 2-ethoxyethanol, 302.98 K): 0.00157
- solubility (mole fraction) (in 2-ethoxyethanol, 308 K): 0.00207
- solubility (mole fraction) (in 2-ethoxyethanol, 313 K): 0.00248
- solubility (mole fraction) (in 2-ethoxyethanol, 317.8 K): 0.00347
- solubility (mole fraction) (in 2-ethoxyethanol, 322.7 K): 0.00439
- solubility (mole fraction) (in 2-ethoxyethanol, 327.65 K): 0.00556
- solubility (mole fraction) (in 2-ethoxyethanol, 332.65 K): 0.00702
- solubility (mole fraction) (in 2-ethoxyethanol, 337.6 K): 0.00896
- solubility (mole fraction) (in 2-ethoxyethanol, 342.58 K): 0.0109
- solubility (mole fraction) (in 2-ethoxyethanol, 347.4 K): 0.0134
- solubility (mole fraction) (in 2-ethoxyethanol, 352.83 K): 0.0168
- solubility (mole fraction) (in 2-ethoxyethanol, 357.7 K): 0.0207
- solubility (mole fraction) (in 2-ethoxyethanol, 362.67 K): 0.0249
- solubility (mole fraction) (in 2-ethoxyethanol, 367.65 K): 0.0301
- solubility (mole fraction) (in acetone, 292.15 K): 0.00153
- solubility (mole fraction) (in acetone, 297.15 K): 0.00182
- solubility (mole fraction) (in acetone, 302.15 K): 0.00226
- solubility (mole fraction) (in acetone, 307.85 K): 0.00304
- solubility (mole fraction) (in acetone, 312.9 K): 0.0037
- solubility (mole fraction) (in acetone, 317.65 K): 0.00427
- solubility (mole fraction) (in acetone, 322.6 K): 0.00551
- solubility (mole fraction) (in ethanol, 293.15 K): 0.00205
- solubility (mole fraction) (in ethanol, 298.1 K): 0.00224
- solubility (mole fraction) (in ethanol, 303.05 K): 0.00241
- solubility (mole fraction) (in ethanol, 307.95 K): 0.0027
- solubility (mole fraction) (in ethanol, 312.95 K): 0.00282
- solubility (mole fraction) (in ethanol, 317.8 K): 0.00309
- solubility (mole fraction) (in ethanol, 322.8 K): 0.00332
- solubility (mole fraction) (in ethanol, 327.85 K): 0.00352
- solubility (mole fraction) (in methanol, 293.15 K): 0.00107
- solubility (mole fraction) (in methanol, 298 K): 0.00128
- solubility (mole fraction) (in methanol, 302.9 K): 0.0015
- solubility (mole fraction) (in methanol, 307.85 K): 0.00182
- solubility (mole fraction) (in methanol, 312.84 K): 0.00227
- solubility (mole fraction) (in methanol, 317.6 K): 0.0026
- solubility (mole fraction) (in methanol, 322.63 K): 0.00292
- solubility (mole fraction) (in water, 303 K): 0.000139
- solubility (mole fraction) (in water, 307.95 K): 0.000143
- solubility (mole fraction) (in water, 312.85 K): 0.000151
- solubility (mole fraction) (in water, 317.6 K): 0.000155
- solubility (mole fraction) (in water, 322.45 K): 0.000165
- solubility (mole fraction) (in water, 327.65 K): 0.000168
- solubility (mole fraction) (in water, 332.5 K): 0.000175
- solubility (mole fraction) (in water, 337.55 K): 0.000184
- solubility (mole fraction) (in water, 342.35 K): 0.000189
